According to patent EP0647627A1, “1,2-Dihydro-2-oxo-3-methylsulfonylaminomethyl-pyridines as angiotensin II antagonists” (MERCK PATENT GmbH, priority 1993, dated 1995):

Assay: Angiotensin II antagonism at the rat adrenal gland, IC50 (method of A.T. Chiu et al., J. Pharmacol. Exp. Therap. 250, 867-874 (1989))
Format: binding, Ratten
Settings: an der Rattennebenniere; Iy and Iz tested as K-Salze; read-out: IC 50-Werte
Source text: Diese Wirkungen können nach üblichen in vitro- oder in vivo-Methoden ermittelt werden, wie sie z.B. in der US-PS 4 880 804, der US-PS 5 036 048 und der WO 91/14367 beschrieben sind, ferner von A.T. Chiu et al., J. Pharmacol. Exp. Therap. 250, 867-874 (1989), und von P.C. Wong et al., ibid. 252, 719-725 (1990; in vivo, an Ratten).
So zeigten die K-Salze von 1,2-Dihydro-1-(2'-(1H-5-tetrazolyl)-biphenylyl-4-methyl)-2-oxo-3-N-methyl- bzw. -3-N-isopropyl-N-methylsulfonylaminomethyl-6-butyl-pyridin ("Iy" bzw. "Iz") an der Rattennebenniere (Versuchsmethodik vgl. A.T.Chiu et al., l.c.) IC 50-Werte von 1,15 bzw. 1,9 nM.l-¹, wahrend das bekannte 1,2-Dihydro-1-(2'-(1H-5-tetrazolyl)biphenylyl-4-methyl)-2-oxo-3-methylsulfonylaminomethyl-6-butyl-pyridin (vgl. EP 0 530 702 A1, Beispiel 22) im gleichen Test einen IC 50-Wert von 4,0 nM · l⁻¹ aufwies.

## CCCCc1ccc(CNS(C)(=O)=O)c(=O)n1Cc1ccc(-c2ccccc2-c2nn[nH]n2)cc1 [EP 0 530 702 A1, Beispiel 22, 1,2-Dihydro-1-(2'-(1H-5-tetrazolyl)biphenylyl-4-methyl)-2-oxo-3-methylsulfonylaminomethyl-6-butyl-pyridin, reference compound]
  IC50: 4 nM

## CCCCc1ccc(CN(C)S(C)(=O)=O)c(=O)n1Cc1ccc(-c2ccccc2-c2nn[nH]n2)cc1 [Iy, 1,2-Dihydro-1-(2'-(1H-5-tetrazolyl)-biphenylyl-4-methyl)-2-oxo-3-N-methyl-N-methylsulfonyl-aminomethyl-6-butyl-pyridin]
  IC50: 1.15 nM

## CCCCc1ccc(CN(C(C)C)S(C)(=O)=O)c(=O)n1Cc1ccc(-c2ccccc2-c2nn[nH]n2)cc1 [Iz, 1,2-Dihydro-1-(2'-(1H-5-tetrazolyl)-biphenylyl-4-methyl)-2-oxo-3-N-isopropyl-N-methylsulfonyl-aminomethyl-6-butyl-pyridin]
  IC50: 1.9 nM
